Values quoted from earlier work as cited in patent US20060068011A1, “Simultaneous encapsulation technique for use in pharmaceutical compositions” (Wyeth, priority 2004, published 2006).

solubility in water: sparingly water soluble
Structure (SMILES): COc1ccccc1OCC(O)CO (stereo not shown) [Guaifenesin, guaifenesin]
